Experimental data reported in US9221809B2 (MERCK SHARP & DOHME CORP., priority 2011, dated 2015).
pIC50: −log10 of the molar value. Counter-ions that a name gives are not always drawn.

biological target: IRAK4 (Homo sapiens (Human), UniProt Q9NWZ3); test: IRAK4 kinase activity, IMAP fluorescence polarization assay; type: biochemical; conditions: 100 μM ATP, 0.5 nM GST tagged IRAK4; read-out: IRAK4 IC50
Summary of the method: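 Fluorescence polarization (IMAP nanoparticle binding of phosphopeptide) reports activity after a 30 min, 25 °C reaction. Conditions: 100 μM ATP, 0.5 nM GST-IRAK4, 100 nM fluorescent peptide, 10 mM Tris pH 7.2, 1 mM MgCl2, 1 mM DTT, 0.01% Tween 20.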

IRAK4, sequence (Q9NWZ3 whole entry): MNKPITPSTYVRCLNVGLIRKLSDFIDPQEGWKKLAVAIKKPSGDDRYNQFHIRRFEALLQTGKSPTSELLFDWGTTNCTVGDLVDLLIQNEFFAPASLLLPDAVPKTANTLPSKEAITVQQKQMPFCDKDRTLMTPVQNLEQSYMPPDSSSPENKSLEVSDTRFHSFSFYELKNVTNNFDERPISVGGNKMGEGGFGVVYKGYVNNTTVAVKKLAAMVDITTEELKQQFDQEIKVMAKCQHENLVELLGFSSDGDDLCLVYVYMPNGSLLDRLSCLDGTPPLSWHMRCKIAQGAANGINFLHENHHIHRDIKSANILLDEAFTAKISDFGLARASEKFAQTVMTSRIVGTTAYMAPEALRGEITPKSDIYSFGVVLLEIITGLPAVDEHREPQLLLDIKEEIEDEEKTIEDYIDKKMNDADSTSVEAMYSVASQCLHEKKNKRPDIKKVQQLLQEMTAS

SMILES | pIC50
Cc1cnc(-c2c(N[C@@H]3CCCNC3)nc(N3CCOCC3)[nH]c2=O)s1 [Example 102, (R)-5-(5-methylthiazol-2-yl)-2-morpholino-6-(piperidin-3-ylamino)pyrimidin-4(3H)-one.HCl] | 5.90
O=c1[nH]c(Nc2ccc(F)cc2)nc(N[C@@H]2C[C@H](CO)[C@@H](O)[C@H]2O)c1-c1nc2ccccc2s1 [Example 52, 5-(Benzo[d]thiazol-2-yl)-6-((1R,2S,3R,4R)-2,3-dihydroxy-4-(hydroxymethyl)cyclopentylamino)-2-(4-fluorophenylamino)pyrimidin-4(3H)-one.HCl] | 6.55
O=c1[nH]c(N2CCOCC2)nc(N[C@@H]2CCCNC2)c1-c1nc(C2CC2)cs1 [Example 100, (R)-5-(4-cyclopropylthiazol-2-yl)-2-morpholino-6-(piperidin-3-ylamino)pyrimidin-4(3H)-one.HCl] | 6.36
Nc1nc(N[C@@H]2C[C@H](CO)[C@@H](O)[C@H]2O)c(-c2nc3ccccc3s2)c(=O)[nH]1 [Example 2, 2-Amino-5-(benzo[d]thiazol-2-yl)-6-((1R,2S,3R,4R)-2,3-dihydroxy-4-(hydroxymethyl)cyclopentylamino)pyrimidin-4(3H)-one.HCl] | 6.16
O=c1[nH]c(N2CCOCC2)nc(N[C@@H]2CCCNC2)c1-c1nc2cc(Cl)ccc2s1 [Example 343, (R)-5-(5-chlorobenzo[d]thiazol-2-yl)-2-morpholino-6-(piperidin-3-ylamino)pyrimidin-4(3H)-one] | 8.10
Cc1ccc(-c2c(N[C@@H]3CCCNC3)nc(N3CCOCC3)[nH]c2=O)nc1 [Example 110, (R)-5-(5-methylpyridin-2-yl)-2-morpholino-6-(piperidin-3-ylamino)pyrimidin-4(3H)-one] | 6.06
O=c1[nH]c(NC2CCCCC2)nc(N[C@@H]2C[C@H](CO)[C@@H](O)[C@H]2O)c1-c1nc2ccccc2s1 [Example 6, 5-(Benzo[d]thiazol-2-yl)-2-(cyclohexylamino)-6-((1R,2S,3R,4R)-2,3-dihydroxy-4-(hydroxymethyl)cyclopentylamino)pyrimidin-4(3H)-one.HCl] | 6.20
O=c1[nH]c(N2CCC(F)(F)CC2)nc(N[C@@H]2C[C@H](CO)[C@@H](O)[C@H]2O)c1-c1nc2ccccc2s1 [Example 27, 5-(Benzo[d]thiazol-2-yl)-2-(4,4-difluoropiperidin-1-yl)-6-(((1R,2S,3R,4R)-2,3-dihydroxy-4-(hydroxymethyl)cyclopentyl)amino)pyrimidin-4(3H)-one.HCl] | 6.87
O=c1[nH]c(N2CCOCC2)nc(N[C@@H]2C[C@H](CO)[C@@H](O)[C@H]2O)c1-c1ccc2ccccc2n1 [Example 18, 6-((1R,2S,3R,4R)-2,3-Dihydroxy-4-(hydroxymethyl)cyclopentylamino)-2-morpholino-5-(quinolin-2-yl)pyrimidin-4(3H)-one.HCl] | 8.02
NC1CCCC(Nc2nc(N3CCOCC3)[nH]c(=O)c2-c2nc3ccccc3s2)C1 (centres unmarked) [Example 90, 6-(3-Aminocyclohexylamino)-5-(benzo[d]thiazol-2-yl)-2-morpholinopyrimidin-4(3H)-one.HCl] | 6.59
O=c1[nH]c(N2CCOCC2)nc(N[C@@H]2CCCCNC2)c1-c1nc2ccccc2s1 [Example 104, (R)-6-(azepan-3-ylamino)-5-(benzo[d]thiazol-2-yl)-2-morpholinopyrimidin-4(3H)-one.HCl] | 7.10
O=c1[nH]c(N[C@H]2CCCNC2)nc(N[C@@H]2C[C@H](CO)[C@@H](O)[C@H]2O)c1-c1nc2ccccc2s1 [Example 39, 5-(Benzo[d]thiazol-2-yl)-6-(((1R,2S,3R,4R)-2,3-dihydroxy-4-(hydroxymethyl)cyclopentyl)amino)-2-((S)-piperidin-3-ylamino)pyrimidin-4(3H)-one.HCl] | 5.37

same assay, conditions: 100 μM ATP; read-out: IC50

SMILES | pIC50
O=c1[nH]c(N2CCOCC2)nc(NC2CNC2)c1-c1nc2ccccc2s1 [Example 253, 6-[(azetidin-3-yl)amino]-5-(1,3-benzothiazol-2-yl)-2-(morpholin-4-yl)-3,4-dihydro-pyrimidin-4-one] | 6.52
O=c1[nH]c(N2CCOCC2)nc(NCCN2CCCCC2)c1-c1ccc2ccccc2n1 [Example 278, 2-(morpholin-4-yl)-6-[[2-(piperidin-1-yl)ethyl]amino]-5-(quinolin-2-yl)-3,4-dihydropyrimidin-4-one] | 5.55
COCC1CN(c2nc(N[C@@H]3CCCNC3)c(-c3nc4ccccc4s3)c(=O)[nH]2)CCO1 (stereo partly drawn) [Example 286, 5-(benzo[d]thiazol-2-yl)-2-(2-(methoxymethyl)morpholino)-6-((R)-piperidin-3-ylamino)pyrimidin-4(3H)-one] | 7.09
CC(C)N1CCC(c2nc(N[C@@H]3CCCNC3)c(-c3nc4ccccc4s3)c(=O)[nH]2)CC1 [Example 228, (R)-5-(1,3-benzothiazol-2-yl)-6-[[(3R)-piperidin-3-yl]amino]-2-[1-(propan-2-yl)piperidin-4-yl]-3,4-dihydro-pyrimidin-4-one] | 6.18
COC1CCN(c2nc(N[C@@H]3CCCNC3)c(-c3nc4ccccc4s3)c(=O)[nH]2)CC1 [Example 293, (R)-5-(benzo[d]thiazol-2-yl)-2-(4-methoxypiperidin-1-yl)-6-(piperidin-3-ylamino)pyrimidin-4(3H)-one] | 7.20
CC1CCCCN1c1nc(N[C@@H]2CCCNC2)c(-c2nc3ccccc3s2)c(=O)[nH]1 (some centres unmarked) [Example 314] | 6.55
Cc1ccc2sc(-c3c(N[C@@H]4CCCNC4)nc(N4CCOCC4)[nH]c3=O)nc2c1 [Example 308, 5-(5-methyl-1,3-benzothiazol-2-yl)-2-(morpholin-4-yl)-6-[[(3R)-piperidin-3-yl]amino]-3,4-dihydropyrimidin-4-one; formic acid] | 6.92

same assay, conditions: 100 μM ATP; read-out: IRAK4 IC50

SMILES | pIC50
O=c1[nH]c(N2CCC(O)C2)nc(N[C@@H]2CCCNC2)c1-c1ccc2ccccc2n1 (stereo partly drawn) [Example 167, 2-(3-hydroxypyrrolidin-1-yl)-6-((R)-piperidin-3-ylamino)-5-(quinolin-2-yl)pyrimidin-4(3H)-one] | 7.70
CS(=O)(=O)c1ccccc1N1CCN(c2nc(N[C@@H]3CCCNC3)c(-c3nc4ccccc4s3)c(=O)[nH]2)CC1 [Example 156, (R)-5-(benzo[d]thiazol-2-yl)-2-(4-(2-(methylsulfonyl)phenyl)piperazin-1-yl)-6-(piperidin-3-ylamino)pyrimidin-4(3H)-one] | 8.05
CN(C)[C@@H]1CCN(c2nc(N[C@@H]3CCCNC3)c(-c3ccc4ccccc4n3)c(=O)[nH]2)C1 [Example 164, 2-((R)-3-(dimethylamino)pyrrolidin-1-yl)-6-((R)-piperidin-3-ylamino)-5-(quinolin-2-yl)pyrimidin-4(3H)-one] | 7.21
CO[C@H]1CCN(c2nc(N[C@@H]3CCCNC3)c(-c3ccc4ccccc4n3)c(=O)[nH]2)C1 [Example 178, 2-((S)-3-methoxypyrrolidin-1-yl)-6-((R)-piperidin-3-ylamino)-5-(quinolin-2-yl)pyrimidin-4(3H)-one] | 7.46
O=c1[nH]c(N2CCC(c3cccc(F)n3)CC2)nc(N[C@@H]2CCCNC2)c1-c1ccc2ccccc2n1 [Example 193, (R)-2-(4-(6-fluoropyridin-2-yl)piperidin-1-yl)-6-(piperidin-3-ylamino)-5-(quinolin-2-yl)pyrimidin-4(3H)-one] | 7.35
O=c1[nH]c(N2CCOCC2)nc(N[C@@H]2CCCNC2)c1-c1nc(-c2cc(F)cc(F)c2)cs1 [Example 203] | 7.00
O=c1[nH]c(N2CCN(c3ncc(C(F)(F)F)cc3Cl)CC2)nc(N[C@@H]2CCCNC2)c1-c1nc2ccccc2s1 [Example 133, (R)-5-(benzo[d]thiazol-2-yl)-2-(4-(3-chloro-5-(trifluoromethyl)pyridin-2-yl)piperazin-1-yl)-6-(piperidin-3-ylamino)pyrimidin-4(3H)-one] | 7.77
O=c1[nH]c(N2CCN(c3nnc(C4CC4)o3)CC2)nc(N[C@@H]2CCCNC2)c1-c1nc2ccccc2s1 [Example 162, (R)-5-(benzo[d]thiazol-2-yl)-2-(4-(5-cyclopropyl-1,3,4-oxadiazol-2-yl)piperazin-1-yl)-6-(piperidin-3-ylamino)pyrimidin-4(3H)-one] | 7.57
O=c1[nH]c(N2CCn3cc(C(F)(F)F)nc3C2)nc(N[C@@H]2CCCNC2)c1-c1nc2ccccc2s1 [Example 140, (R)-5-(benzo[d]thiazol-2-yl)-6-(piperidin-3-ylamino)-2-(2-(trifluoromethyl)-5,6-dihydroimidazo[1,2-a]pyrazin-7(8H)-yl)pyrimidin-4(3H)-one] | 6.95
CN(C)[C@H]1CCN(c2nc(N[C@@H]3CCCNC3)c(-c3ccc4ccccc4n3)c(=O)[nH]2)C1 [Example 166, 2-((S)-3-(dimethylamino)pyrrolidin-1-yl)-6-((R)-piperidin-3-ylamino)-5-(quinolin-2-yl)pyrimidin-4(3H)-one] | 6.80
Cc1nsc(C2CCN(c3nc(N[C@@H]4CCCNC4)c(-c4ccc5ccccc5n4)c(=O)[nH]3)CC2)n1 [Example 191, (R)-2-(4-(3-methyl-1,2,4-thiadiazol-5-yl)piperidin-1-yl)-6-(piperidin-3-ylamino)-5-(quinolin-2-yl)pyrimidin-4(3H)-one] | 6.86
CN1CCC2CCN(c3nc(N[C@@H]4CCCNC4)c(-c4ccc5ccccc5n4)c(=O)[nH]3)C2C1 (stereo partly drawn) [Example 185, 2-(6-methyloctahydro-1H-pyrrolo[2,3-c]pyridin-1-yl)-6-((R)-piperidin-3-ylamino)-5-(quinolin-2-yl)pyrimidin-4(3H)-one] | 6.07

same assay, conditions: unit inferred; 100 μM ATP; read-out: IRAK4 IC50

SMILES | pIC50
O=c1[nH]c(N2CCN(c3cccnc3)CC2)nc(N[C@@H]2C[C@H](CO)[C@@H](O)[C@H]2O)c1-c1nc2ccccc2s1 [Example 63, 5-(benzo[d]thiazol-2-yl)-6-((1R,2S,3R,4R)-2,3-dihydroxy-4-(hydroxymethyl)cyclopentylamino)-2-(4-(pyridin-3-yl)piperazin-1-yl)pyrimidin-4(3H)-one] | 8.43
